Laboratory results from patent US20230121721A1, “MONOACYLGLYCEROL LIPASE INHIBITORS” (STICHTING HET NEDERLANDS KANKER INSTITUUT - ANTONI VAN …, priority 2020, published 2023).

Molecular target: T1, hMAGL (MAGL-overexpressing membrane preparations from transiently transfected HEK293T cells) (Homo sapiens, UniProt Q99685)
T1 construct: expressed in transfected cells; host or cells: HEK293T (transient transfection), membrane preparations
T1 sequence (Q99685 1-303): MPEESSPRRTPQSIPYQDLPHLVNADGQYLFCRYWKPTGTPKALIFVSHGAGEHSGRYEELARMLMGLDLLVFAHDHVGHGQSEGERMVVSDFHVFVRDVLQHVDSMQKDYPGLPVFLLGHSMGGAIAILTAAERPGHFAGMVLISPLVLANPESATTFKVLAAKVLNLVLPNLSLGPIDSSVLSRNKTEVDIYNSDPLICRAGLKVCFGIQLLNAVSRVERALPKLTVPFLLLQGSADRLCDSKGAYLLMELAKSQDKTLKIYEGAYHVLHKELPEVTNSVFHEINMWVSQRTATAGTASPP
Test: MAGL activity assay (2-AG hydrolysis, glycerol coupled to Amplifu Red fluorescence)
Assay type: biochemical
Conditions: hMAGL-overexpressing HEK293T membranes, 25 μM 2-AG substrate, 20 min. inhibitor incubation
Description: The MAGL activity assay is based on the production of glycerol from 2-arachidonoylglycerol (2-AG) hydrolysis by MAGL-overexpressing membrane preparations from transiently transfected HEK293T cells, as previously reported in van der Wel T et al., “A natural substrate-based fluorescence assay for inhibitor screening on diacylglycerol lipase”, J Lipid Res., 2015, 56(4), 927-35. The produced glycerol is coupled to the oxidation of commercially available Amplifu™ Red (Sigma-Aldrich Chemie N.V., Zwijndrecht, Netherlands) via a multi-enzyme cascade, resulting in a fluorescent signal from the dye resorufin.
Standard assays were performed in HEMNB buffer (50 mM HEPES pH 7.4, 1 mM EDTA, 5 mM MgCl2, 100 mM NaCl, 0.5% (w/v) BSA) in black, flat bottom 96-wells plates. Final protein concentration of membrane preparations from overexpressing hMAGL HEK293T cells was 1.5 μg/mL (0.3 μg per well). Inhibitors were added from 40× concentrated DMSO stocks. […] Final assay concentrations: 0.2 U/mL GK, GPO and HRP, 0.125 mM ATP, 10 μM Amplifu™ Red, 25 μM 2-AG, 5% DMSO, 0.5% ACN in a total volume of 200 μL.
For IC50 determination, the MAGL-overexpressing membranes were incubated with different inhibitor concentrations. Slopes of corrected fluorescence in time were determined in the linear interval of t=10 to t=35 min and then scaled to the corrected positive control of hMAGL-overexpressing membranes treated with vehicle (DMSO) as a 100% activity reference point. The data was exported to GraphPad Prism 5.0 and analysed in a non-linear dose-response analysis with variable slope.

Work on `C[C@H]1[C@H](C)N(c2cccc(Cl)c2)CCN1C(=O)c1ccc([S+]([O-])CC(=O)c2ccc(C(F)(F)F)cc2)c(Cl)c1` (mixture of isomers) [Example 103, (±) 2-((2-Chloro-4-(4-(3-chlorophenyl)-trans-2,3-dimethylpiperazine-1-carbonyl)phenyl)sulfinyl)-1-(4-(trifluoromethyl)phenyl)ethan-1-one] yielded an IC50 of 2950 nM.
Work on `C[C@H]1[C@H](C)N(c2cccc(Cl)c2)CCN1C(=O)c1ccc([S+]([O-])CC(=O)c2ccccc2)c(Cl)c1` (mixture of isomers) [Example 104, (±) 2-((2-Chloro-4-(4-(3-chlorophenyl)-trans-2,3-dimethylpiperazine-1-carbonyl)phenyl)sulfinyl)-1-phenylethan-1-one] yielded an IC50 of 2290 nM.
`C[C@H]1[C@H](C)N(c2cccc(Cl)c2)CCN1C(=O)c1ccc([S+]([O-])CC(=O)c2ccc(C#N)cn2)c(Cl)c1` (mixture of isomers) [Example 105, (±) 6-(2-((2-Chloro-4-(4-(3-chlorophenyl)-trans-2,3-dimethylpiperazine-1-carbonyl)phenyl)sulfinyl)acetyl)nicotinonitrile] showed an IC50 of 10 nM.
Work on `CCOC(=O)C[S+]([O-])c1ccc(C(=O)N2CCN(c3cccc(Cl)c3)[C@H](C)[C@H]2C)cc1C(F)(F)F` (mixture of isomers) [Example 107, (±) Ethyl 2-((4-(4-(3-chlorophenyl)-trans-2,3-dimethylpiperazine-1-carbonyl)-2-(trifluoromethyl)phenyl)sulfinyl)acetate] yielded an IC50 of 14.8 nM.
For `CCOC(=O)C[S+]([O-])c1ccc(C(=O)N2CCN(c3cccc(C)c3)[C@@H](C)C2)cc1[N+](=O)[O-]` (stereo partly drawn) [Example 2, Ethyl 2-((4-((S)-3-methyl-4-(m-tolyl)piperazine-1-carbonyl)-2-nitrophenyl)sulfinyl)acetate], the IC50 was 269 nM.
In the case of `CCOC(=O)C[S+]([O-])c1ccc(C(=O)N2CCN(c3cccc(C)c3)[C@H](C)C2)cc1[N+](=O)[O-]` (stereo partly drawn) [Example 3, Ethyl 2-((4-((R)-3-methyl-4-(m-tolyl)piperazine-1-carbonyl)-2-nitrophenyl)sulfinyl)acetate], the IC50 is reported as 195 nM.
In the case of `CCOC(=O)CSc1ccc(C(=O)N2CCN(c3cccc(C)c3)[C@@H](C)C2)cc1[N+](=O)[O-]` [Example 5, Ethyl (S)-2-((4-(3-methyl-4-(m-tolyl)piperazine-1-carbonyl)-2-nitrophenyl)thio)acetate], the IC50 is reported as greater than 10000 nM.
Work on `CCOC(=O)CS(=O)(=O)c1ccc(C(=O)N2CCN(c3cccc(C)c3)[C@@H](C)C2)cc1[N+](=O)[O-]` [Example 6, Ethyl (S)-2-((4-(3-methyl-4-(m-tolyl)piperazine-1-carbonyl)-2-nitrophenyl)sulfonyl)acetate] yielded an IC50 greater than 10000 nM.
Molecule `CCOC(=O)C[S+]([O-])c1ccc(C(=O)N2CCN(c3cccc(C)c3)[C@@H](C)C2)cc1` (stereo partly drawn) [Example 7, Ethyl 2-((4-((S)-3-methyl-4-(m-tolyl)piperazine-1-carbonyl)phenyl)sulfinyl)acetate] has an IC50 of 5620 nM.
For `CCOC(=O)C[S+]([O-])c1ccc(C(=O)N2CCN(c3cccc(F)c3)CC2)cc1[N+](=O)[O-]` (stereo not shown) [Example 9, Ethyl 2-((4-(4-(3-fluorophenyl)piperazine-1-carbonyl)-2-nitrophenyl)sulfinyl)acetate], the IC50 was 631 nM.
In the case of `CCOC(=O)C[S+]([O-])c1ccc(C(=O)N2CCN(c3ccc(C(F)(F)F)cc3)CC2)cc1[N+](=O)[O-]` (stereo not shown) [Example 16, Ethyl 2-((2-nitro-4-(4-(4-(trifluoromethyl)phenyl)piperazine-1-carbonyl)phenyl)sulfinyl)acetate], the IC50 is reported as 589 nM.
Work on `CCOC(=O)C[S+]([O-])c1ccc(C(=O)N2CCN(c3cccc([N+](=O)[O-])c3)CC2)cc1[N+](=O)[O-]` (stereo not shown) [Example 19, Ethyl 2-((2-nitro-4-(4-(3-nitrophenyl)piperazine-1-carbonyl)phenyl)sulfinyl)acetate] yielded an IC50 of 2570 nM.
`CCOC(=O)C[S+]([O-])c1ccc(C(=O)N2CCN(c3cccc(-c4ccccc4)c3)CC2)cc1[N+](=O)[O-]` (stereo not shown) [Example 20, Ethyl 2-((4-(4-([1,1′-biphenyl]-3-yl)piperazine-1-carbonyl)-2-nitrophenyl)sulfinyl)acetate] gave an IC50 of 1350 nM.
`CCOC(=O)C[S+]([O-])c1ccc(C(=O)N2CCN(c3ccc(Cl)c(Cl)c3)CC2)cc1[N+](=O)[O-]` (stereo not shown) [Example 22, Ethyl 2-((4-(4-(3,4-dichlorophenyl)piperazine-1-carbonyl)-2-nitrophenyl)sulfinyl)acetate] showed an IC50 of 2570 nM.
In the case of `CCOC(=O)C[S+]([O-])c1ccc(C(=O)N2CCN(c3ccc(Cl)cc3Cl)CC2)cc1[N+](=O)[O-]` (stereo not shown) [Example 23, Ethyl 2-((4-(4-(2,4-dichlorophenyl)piperazine-1-carbonyl)-2-nitrophenyl)sulfinyl)acetate], the IC50 is reported as 1950 nM.
In the case of `CCOC(=O)C[S+]([O-])c1ccc(C(=O)N2CCN(c3c(Cl)cccc3Cl)CC2)cc1[N+](=O)[O-]` (stereo not shown) [Example 24, Ethyl 2-((4-(4-(2,6-dichlorophenyl)piperazine-1-carbonyl)-2-nitrophenyl)sulfinyl)acetate], the IC50 is reported as 1820 nM.
Work on `CCOC(=O)C[S+]([O-])c1ccc(C(=O)N2CCN(c3cccc(F)c3)[C@@H](C)C2)cc1[N+](=O)[O-]` (stereo partly drawn) [Example 25, Ethyl 2-((4-((S)-4-(3-fluorophenyl)-3-methylpiperazine-1-carbonyl)-2-nitrophenyl)sulfinyl)acetate] yielded an IC50 of 155 nM.
For `CCOC(=O)C[S+]([O-])c1ccc(C(=O)N2CCN(c3cccc(C(F)(F)F)c3)[C@H](C)C2)cc1[N+](=O)[O-]` (stereo partly drawn) [Example 30, Ethyl 2-((4-((R)-3-methyl-4-(3-(trifluoromethyl)phenyl)piperazine-1-carbonyl)-2-nitrophenyl)sulfinyl)acetate], the IC50 was 115 nM.
Work on `CCOC(=O)C[S+]([O-])c1ccc(C(=O)N2CCN(c3cccc(C(F)(F)F)c3)[C@@H](C)C2)cc1[N+](=O)[O-]` (stereo partly drawn) [Example 31, Ethyl 2-((4-((S)-3-methyl-4-(3-(trifluoromethyl)phenyl)piperazine-1-carbonyl)-2-nitrophenyl)sulfinyl)acetate] yielded an IC50 of 200 nM.
`CCN(C)C(=O)C[S+]([O-])c1ccc(C(=O)N2CCN(c3cccc(Cl)c3)[C@H](C)C2)cc1[N+](=O)[O-]` (stereo partly drawn) [Example 33, 2-((4-((R)-4-(3-Chlorophenyl)-3-methylpiperazine-1-carbonyl)-2-nitrophenyl)sulfinyl)-N-ethyl-N-methylacetamide] was tested, and the IC50 was greater than 10000 nM.
In the case of `C[C@@H]1CN(C(=O)c2ccc([S+]([O-])CC(=O)OCCCO)c([N+](=O)[O-])c2)CCN1c1cccc(Cl)c1` (stereo partly drawn) [Example 41, 3-Hydroxypropyl 2-((4-((R)-4-(3-chlorophenyl)-3-methylpiperazine-1-carbonyl)-2-nitrophenyl)sulfinyl)acetate], the IC50 is reported as 34.7 nM.
For `CCOC(=O)C[S+]([O-])c1ccc(C(=O)N2CCN(c3cccc(Cl)c3)CC2C)cc1F` (stereo not shown) [Example 44, Ethyl 2-((4-(4-(3-chlorophenyl)-2-methylpiperazine-1-carbonyl)-2-fluorophenyl)sulfinyl)acetate], the IC50 was 27.5 nM.
Work on `CCOC(=O)C[S+]([O-])c1ccc(C(=O)N2CCN(c3cccc(Cl)c3)C(C)(C)C2)cc1F` (stereo not shown) [Example 47, Ethyl 2-((4-(4-(3-chlorophenyl)-3,3-dimethylpiperazine-1-carbonyl)-2-fluorophenyl)sulfinyl)acetate] yielded an IC50 of 46.8 nM.
`CCOC(=O)C[S+]([O-])c1ccc(C(=O)N2CCN(c3cccc(Cl)c3)CC2(C)C)cc1F` (stereo not shown) [Example 48, Ethyl 2-((4-(4-(3-chlorophenyl)-2,2-dimethylpiperazine-1-carbonyl)-2-fluorophenyl)sulfinyl)acetate] was tested, and the IC50 was 57.5 nM.
Work on `CCOC(=O)C[S+]([O-])c1c(F)cc(C(=O)N2CCN(c3cccc(Cl)c3)[C@H](C)C2)cc1F` (stereo partly drawn) [Example 106, Ethyl 2-((4-((R)-4-(3-chlorophenyl)-3-methylpiperazine-1-carbonyl)-2,6-difluorophenyl)sulfinyl)acetate] yielded an IC50 of 282 nM.
